Values of other authors, collected in PMC11859340, “The Therapeutic Potential of Spirooxindoles in Cancer: A Focus on p53–MDM2 Modulation” (Pharmaceuticals, 2025).
One block for each compound: values may come before it.

Columns and labels:
[1] = tested on: HepG2 (hepatocellular wild p53 type); set-up: method as in PMID 24268795; conditions: read-out: GI50 against HepG2
HCT116 (p53^+/+) = tested on: HCT116 (p53^+/+); set-up: method as in PMID 24268795; conditions: read-out: GI50 against HCT116 (p53^+/+)
HCT116 (p53^−/−) = tested on: HCT116 (p53^−/−); set-up: method as in PMID 24268795; conditions: read-out: GI50 against HCT116 (p53^−/−)
SW620 (mutant p53) = tested on: SW620 (mutant p53); set-up: method as in PMID 24268795; conditions: read-out: GI50 against SW620
PC-3 (p53−) = tested on: PC-3 (p53−); set-up: method as in PMID 30735387; conditions: MTT; read-out: IC50 against PC-3 (p53−)
LNCaP (p53+) = tested on: LNCaP (p53+); set-up: method as in PMID 30735387; conditions: MTT; read-out: IC50 against LNCaP (p53+)
MD-MB-231 = tested on: MD-MB-231; set-up: method as in PMID 25618595; conditions: MTT; read-out: IC50 against MD-MB-231
MCF7 = tested on: MCF7; set-up: method as in PMID 25618595; conditions: MTT; read-out: IC50 against MCF7
HEK-293 = tested on: HEK-293; set-up: method as in PMID 25618595; conditions: human kidney normal cell line; read-out: IC50 against HEK-293
VERO = tested on: VERO; set-up: method as in PMID 25618595; conditions: monkey kidney normal cell line; read-out: IC50 against VERO
tumor growth = tested on: tumor growth; set-up: method as in PMID 25618595; conditions: 20 mg/kg body weight over 14 days
MCF7 (breast) = tested on: MCF7 (breast); set-up: method as in PMID 26256638; conditions: MTT; read-out: IC50 against MCF7
MDA-MB231 (breast) = tested on: MDA-MB231 (breast); set-up: method as in PMID 34970530; conditions: MTT; read-out: IC50 against MDA-MB231
HepG-2 (liver) = tested on: HepG-2 (liver); set-up: method as in PMID 34970530; conditions: MTT; read-out: IC50 against HepG-2
Caco-2 (colon) = tested on: Caco-2 (colon); set-up: method as in PMID 34970530; conditions: MTT; read-out: IC50 against Caco-2
MDA-MB-231 = tested on: MDA-MB-231; set-up: method as in doi:10.3390/separations10040225; conditions: MTT; read-out: IC50 against MDA-MB-231
PC3 = tested on: PC3; set-up: method as in doi:10.3390/separations10040225; conditions: MTT; read-out: IC50 against PC3
MDM2 = target: MDM2; set-up: method as in doi:10.3390/separations10040225; conditions: MST; read-out: KD, MST binding affinity for MDM2
HCT116^+/+ = tested on: HCT116^+/+; set-up: method as in PMID 34946727; conditions: MTT; read-out: CC50 against HCT116^+/+
HCT116^−/− = tested on: HCT116^−/−; set-up: method as in PMID 34946727; conditions: MTT; read-out: CC50 against HCT116^−/−
HCT116 p53^+/+ = tested on: HCT116 p53^+/+; set-up: method as in PMID 28800455; conditions: read-out: IC50 against HCT116 p53^+/+
HCT116 p53^−/− = tested on: HCT116 p53^−/−; set-up: method as in PMID 28800455; conditions: read-out: IC50 against HCT116 p53^−/−
MCF7 “wild p53” = tested on: MCF7 “wild p53”; set-up: method as in PMID 37731691; conditions: MTT; read-out: IC50 against MCF7
MDA-MB-231 “mutant p53” = tested on: MDA-MB-231 “mutant p53”; set-up: method as in PMID 37731691; conditions: MTT; read-out: IC50 against MDA-MB-231
MCF 10A = tested on: MCF 10A; set-up: method as in PMID 37731691; conditions: MTT; read-out: IC50 against MCF 10A

SMILES: COC(=O)C1([N+](=O)[O-])C[C@@H](c2ccccc2)N(c2ccccc2)[C@]12C(=O)Nc1ccccc12 (stereo partly shown)
IC50 (PC-3 (p53−)): 6.8 to 8.5 µM | IC50 (LNCaP (p53+)): 6.2 to 7.9 µM

SMILES: O=C(c1nc2ccccc2[nH]1)[C@H]1[C@H](c2ccc(Cl)cc2)C2CC3CCCCC3N2[C@]12C(=O)Nc1ccc(Cl)cc12 (stereo partly shown) [39 (R = 4-ClC6H4)]
IC50 (MDA-MB-231): 4.76 ± 0.069 µM | IC50 (PC3): 4.574 ± 0.011 µM | Kd (MDM2): 2.38 µM

SMILES: COc1ccc(N2C(=O)[C@@]3(CN(C)C[C@@]34C(=O)Nc3ccc(Cl)cc34)NC2=S)cc1 [84 (X = S, R = Cl, R’ = 4-MeOC6H4)]
CC50 (HCT116^+/+): 1.95 ± 0.43 µM | CC50 (HCT116^−/−): 2.35 ± 0.95 µM

SMILES: O=C1C=CC(OCc2cn(CCN3C(=O)[C@]4(c5ccc(Br)cc53)[C@@H](c3ccccc3)C(c3ccccc3)=NN4c3ccccc3)nn2)(c2cc(=O)c3c(O)cc(O)cc3o2)C=C1 [105 (X = (CH2)2)]
IC50 (MCF7 “wild p53”): 2.92 µM | IC50 (MDA-MB-231 “mutant p53”): 1.08 µM | IC50 (MCF 10A): 4.56 µM

Further lines, with some results ahead:

GI50 [1]: 29.1 ± 1.09 µM | GI50 (HCT116 (p53^+/+)): 26.6 ± 1.07 µM | GI50 (HCT116 (p53^−/−)): 30.6 ± 1.12 µM | GI50 (SW620 (mutant p53)): 31.6 ± 1.05 µM
SMILES: Cc1ccc(C2=NO[C@@]3(C(=O)Nc4cc(Cl)ccc43)[C@@H]2c2ccccc2)cc1

IC50 (MCF7): 6.5 µM | IC50 (HEK-293): > 50 µM | IC50 (VERO): > 50 µM
SMILES: O=C(c1ccc(OCCN2CCCCC2)cc1)C1[C@H](c2ccccc2)[C@@H](c2ccccc2)NC12C(=O)Nc1ccc(Cl)cc12 (stereo partly shown)
IC50 (MD-MB-231): 3.7 µM | tumor growth compared to the untreated control group (tumor growth): reduction in tumor growth

IC50 (MCF7 (breast)): 10.5 ± 1.6 µM | IC50 (MDA-MB231 (breast)): 7.05 ± 0.204 µM | IC50 (Caco-2 (colon)): 1.05 ± 0.156 µM
SMILES: O=c1[nH]cc(F)c(=O)[nH]1 [5-fluorouracil]
IC50 (HepG-2 (liver)): 4.83 ± 0.296 µM

IC50 (HCT116 p53^+/+): 13.1 ± 1 µM | IC50 (HCT116 p53^−/−): 14.2 ± 0.8 µM
SMILES: O=C1Nc2ccc(Br)cc2[C@]12[C@@H](c1ccccc1)C(c1ccccc1)=NN2c1ccccc1 [97 (R = 5-Br, R^1 = R^3 = H, R^2 = Ph)]
